Test results published in the supplement of paper PMC10307832.

What follows are cell lines tested with CC(C)=CC[C@@H](O)C1=CC(=O)c2c(O)ccc(O)c2C1=O [Shikonin] (assay: relative viability (nuclei count vs DMSO), 5 days (fraction); higher = more cells survive). Details: 0.01 µM.
In short: (§1)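 In 1536-well plates, lung cancer cell lines rested overnight at 37 °C before five library-drug doses (not always all listed), √10 apart, were pinned onto vehicle-anchored plates. Nuclei were counted with MetaXpress from 4× Hoechst images taken after 5 days without medium change. Viability compares treated-well with vehicle-well nuclei as a median over plates, and plates needed control CV below 25% plus at least one doubling to pass.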

In order of falling relative viability:
1. SW 1573  1.1
2. NCI-H1651  1.09
3. RERF-LC-KJ  1.09
4. HCC-15  1.06
5. NCI-H1299  1.05
6. SK-LU-1  1.05
7. CAL-12T  1.03
8. NCI-H1755  1.03
9. NCI-H23  1.02
10. NCI-H661  1
11. EKVX  1
12. NCI-H1944  0.993
13. NCI-H2085  0.992
14. NCI-H1437  0.989
15. NCI-H1792  0.987
16. NCI-H1355  0.981
17. NCI-H358  0.978
18. LC-2-ad  0.965
19. NCI-H1975  0.956
20. NCI-H1563  0.944
21. NCI-H1793  0.926
22. NCI-H322M  0.924
23. ABC-1  0.921
24. NCI-H727  0.916
25. EPLC-272H  0.906

Same assay, conditions: 0.1 µM

In order of rising relative viability:
1. NCI-H358  0.862
2. NCI-H322M  0.917
3. NCI-H1651  0.919
4. NCI-H1975  0.946
5. NCI-H1563  0.954
6. EKVX  0.963
7. SW 1573  0.967
8. EPLC-272H  0.974
9. RERF-LC-KJ  0.986
10. NCI-H1792  0.991
11. NCI-H1437  1.01
12. NCI-H1755  1.01
13. NCI-H727  1.03
14. HCC-15  1.04
15. NCI-H2085  1.05
16. LC-2-ad  1.05
17. SK-LU-1  1.05
18. NCI-H1299  1.06
19. NCI-H661  1.06
20. NCI-H1944  1.06
21. CAL-12T  1.07
22. NCI-H1355  1.08
23. NCI-H1793  1.1
24. NCI-H23  1.11
25. ABC-1  1.13

Same assay, conditions: 0.3162 µM

In order of rising relative viability:
1. NCI-H1793  0.85
2. SW 1573  0.894
3. ABC-1  0.91
4. NCI-H322M  0.921
5. NCI-H1792  0.922
6. NCI-H727  0.933
7. NCI-H1975  0.955
8. NCI-H358  0.967
9. CAL-12T  0.981
10. NCI-H2085  0.985
11. NCI-H1437  0.998
12. NCI-H23  1
13. NCI-H1299  1.01
14. NCI-H1651  1.01
15. LC-2-ad  1.01
16. NCI-H1563  1.01
17. NCI-H1355  1.02
18. RERF-LC-KJ  1.02
19. NCI-H661  1.06
20. EPLC-272H  1.06
21. EKVX  1.08
22. NCI-H1755  1.12
23. HCC-15  1.12
24. NCI-H1944  1.12
25. SK-LU-1  1.21

Same assay, conditions: 1 µM

In order of rising relative viability:
1. SW 1573  0.721
2. ABC-1  0.764
3. NCI-H661  0.928
4. NCI-H1793  0.936
5. NCI-H1563  0.959
6. EKVX  0.964
7. NCI-H1299  0.973
8. NCI-H358  0.979
9. NCI-H23  0.981
10. NCI-H2085  0.983
11. NCI-H1944  0.986
12. NCI-H1437  0.989
13. CAL-12T  0.991
14. NCI-H1755  1
15. LC-2-ad  1.01
16. NCI-H1651  1.02
17. NCI-H727  1.02
18. RERF-LC-KJ  1.03
19. SK-LU-1  1.03
20. NCI-H1355  1.04
21. NCI-H1975  1.05
22. NCI-H322M  1.06
23. EPLC-272H  1.09
24. HCC-15  1.09
25. NCI-H1792  1.22

Each cell line was assayed with CC(C)N(CCCNC(=O)Nc1ccc(C(C)(C)C)cc1)C[C@H]1O[C@@H](n2ccc3c(N)ncnc32)[C@H](O)[C@@H]1O in the same assay as above. Details: 0.08 µM.
In short: as §1

In order of falling relative viability:
1. NCI-H1792  1.06
2. NCI-H661  1.04
3. NCI-H1755  1.01
4. SK-LU-1  1.01
5. EKVX  1
6. NCI-H1299  0.979
7. NCI-H1944  0.979
8. LC-2-ad  0.978
9. SW 1573  0.968
10. NCI-H1651  0.963
11. RERF-LC-KJ  0.951
12. HCC-15  0.938
13. CAL-12T  0.937
14. NCI-H2085  0.93
15. NCI-H322M  0.929
16. NCI-H1437  0.926
17. NCI-H1563  0.918
18. NCI-H1355  0.913
19. NCI-H23  0.912
20. EPLC-272H  0.907
21. NCI-H727  0.867
22. NCI-H1793  0.865
23. ABC-1  0.859
24. NCI-H358  0.856
25. NCI-H1975  0.844

Same assay, conditions: 0.253 µM

In order of falling relative viability:
1. SK-LU-1  1.06
2. RERF-LC-KJ  1.05
3. LC-2-ad  1.03
4. NCI-H1299  1.01
5. HCC-15  0.986
6. SW 1573  0.966
7. NCI-H661  0.962
8. NCI-H1755  0.944
9. NCI-H1437  0.941
10. EKVX  0.934
11. NCI-H1651  0.918
12. NCI-H1355  0.915
13. CAL-12T  0.906
14. NCI-H2085  0.905
15. NCI-H322M  0.893
16. EPLC-272H  0.883
17. NCI-H1944  0.878
18. NCI-H358  0.873
19. NCI-H1563  0.849
20. NCI-H1975  0.837
21. NCI-H727  0.815
22. ABC-1  0.797
23. NCI-H23  0.707

Same assay, conditions: 0.8 µM

In order of rising relative viability:
1. NCI-H1975  0.594
2. LC-2-ad  0.731
3. NCI-H1355  0.75
4. NCI-H1944  0.762
5. HCC-15  0.786
6. NCI-H1792  0.812
7. NCI-H1755  0.856
8. NCI-H1793  0.861
9. NCI-H727  0.868
10. NCI-H1651  0.92
11. NCI-H1437  0.92
12. NCI-H322M  0.93
13. EKVX  0.932
14. NCI-H1563  0.944
15. NCI-H1299  0.955
16. RERF-LC-KJ  0.966
17. EPLC-272H  0.968
18. SK-LU-1  0.989
19. CAL-12T  0.992
20. NCI-H2085  1.03
21. NCI-H661  1.04
22. NCI-H358  1.04
23. NCI-H23  1.07
24. SW 1573  1.07

Same assay, conditions: 2.53 µM

In order of falling relative viability:
1. SW 1573  1.11
2. SK-LU-1  1.1
3. ABC-1  1.05
4. NCI-H1355  1.03
5. NCI-H1563  1.03
6. NCI-H661  1.02
7. NCI-H2085  1.02
8. NCI-H1651  1
9. EKVX  1
10. NCI-H1299  0.999
11. HCC-15  0.979
12. NCI-H1944  0.976
13. CAL-12T  0.969
14. RERF-LC-KJ  0.968
15. NCI-H1437  0.965
16. LC-2-ad  0.944
17. EPLC-272H  0.936
18. NCI-H23  0.931
19. NCI-H727  0.931
20. NCI-H1755  0.926
21. NCI-H358  0.924
22. NCI-H322M  0.918
23. NCI-H1792  0.912
24. NCI-H1793  0.891
25. NCI-H1975  0.843

Same assay, conditions: 8 µM

In order of rising relative viability:
1. NCI-H1975  0.743
2. NCI-H1793  0.854
3. EPLC-272H  0.859
4. EKVX  0.862
5. NCI-H1355  0.879
6. LC-2-ad  0.882
7. NCI-H358  0.889
8. NCI-H23  0.9
9. RERF-LC-KJ  0.912
10. NCI-H1755  0.913
11. HCC-15  0.914
12. NCI-H1944  0.936
13. CAL-12T  0.938
14. SK-LU-1  0.941
15. NCI-H727  0.943
16. NCI-H1651  0.957
17. NCI-H1437  0.957
18. NCI-H1563  0.957
19. NCI-H1299  0.963
20. NCI-H322M  0.975
21. NCI-H2085  0.983
22. SW 1573  0.984
23. NCI-H1792  0.99
24. NCI-H661  1
25. ABC-1  1.01
